This assay deals with T1, human CD73 (Homo sapiens, UniProt P21589).
T1 construct: host or cells: CHO-K1 (suspension pool CHO-CD73)
T1 sequence (P21589 27-549): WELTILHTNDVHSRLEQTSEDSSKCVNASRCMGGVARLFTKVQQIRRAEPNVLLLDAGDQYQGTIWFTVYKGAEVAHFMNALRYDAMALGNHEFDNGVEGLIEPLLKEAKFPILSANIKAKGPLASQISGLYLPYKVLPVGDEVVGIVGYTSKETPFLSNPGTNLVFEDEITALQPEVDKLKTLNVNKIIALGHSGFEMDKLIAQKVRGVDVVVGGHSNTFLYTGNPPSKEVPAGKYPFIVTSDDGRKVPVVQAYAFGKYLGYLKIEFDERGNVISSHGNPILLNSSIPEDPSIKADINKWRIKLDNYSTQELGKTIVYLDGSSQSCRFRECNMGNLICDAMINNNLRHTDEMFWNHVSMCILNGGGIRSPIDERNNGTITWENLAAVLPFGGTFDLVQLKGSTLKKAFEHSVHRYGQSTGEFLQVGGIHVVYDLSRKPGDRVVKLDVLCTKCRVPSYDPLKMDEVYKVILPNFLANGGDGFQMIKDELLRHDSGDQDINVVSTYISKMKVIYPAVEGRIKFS
Description: Inhibition of ecto-5′-nucleotidase (CD73) activity in CHO-CD73 cells, phosphate colorimetric readout. The class given is cell-based. Conditions: CHO-K1 cells stably transfected with human CD73, 2500 cells per well, 25 μM AMP substrate, 50 minutes incubation at 37° C.; read-out: Potency: CD73 IC50. How it is done: Inhibition of Ecto-5′-nucleotidase Activity. Compounds were evaluated to determine their ecto-5′-nucleotidase (CD73) inhibitory activity. Briefly, CHO-K1 cells stably transfected with human CD73 were generated by LakePharma (Belmont, CA) using molecular cloning of human CD73 (http://www.uniprot.org/uniprot/P21589) and mammalian transient expression vector (P21589.1). After antibiotic selection in CD OptiCHO cell media (Invitrogen, Catalog #12681-011) containing 5 μg/mL Puromycin and 200 μg/mL Hygromycin B, a suspension pool of CHO-CD73 cells was collected and frozen in 7.5% DMSO in cell media without antibiotics.
On the day of the experiment, one vial of CHO-CD73 cells was thawed and suspended in assay media which consisted of 20 mM HEPES, pH 7.4, 137 mM NaCl, 5.4 mM KCl, 1.3 mM CaCl2), 4.2 mM NaHCO3 and 0.1% glucose. To test the ability of compounds to inhibit CD73 enzymatic activity, 2 μL of 500 μM of compounds dissolved in DMSO (50×) were added to a 96-well polystyrene plate containing 58 μL of assay buffer. Next, 20 μL of CHO-CD73 cells in assay buffer were added to assay plate followed by 20 μL of 125 μM AMP (Adenosine 5′-monophosphate monohydrate) in assay buffer. Final assay conditions consisted of 2500 cells per well in 2% DMSO and 25 μM of AMP substrate. After 50 minutes of incubation (37° C. and 5% CO2) and centrifugation at 225×g for 5 mins, 80 μL of supernatant were transferred to a 96-well Spectra Plate (PerkinElmer, cat #6005640) which was pre-dispensed with 20 μL of PiColorLock Gold colorimetric assay reagents (Thermo, cat #30 300 30). The amount of inorganic phosphate was determined by reading the absorbance at 620 nm on an EnVision Multilabel Plate Reader (PerkinElmer). Enzymatic activity of CD73 was based on the amount of phosphate generated. Percentage of activity was calculated based on DMSO and no cells control wells. IC50 values of compounds were determined by four parameter non-linear regression fitting of percentage of activity in GraphPad Prism software.
Take `O=P(O)(O)CP(=O)(O)OC[C@H]1O[C@@H](n2cnc3c(NCc4ccc(Br)cc4)ncnc32)[C@H](O)[C@@H]1O`: the IC50 was less than 100 nM.

Take `CC(C)N(C)c1nc(Cl)nc2c1ncn2[C@@H]1O[C@H](COP(=O)(O)CP(=O)(O)O)[C@@H](O)[C@H]1O`: the IC50 was less than 100 nM. For `O=P(O)(O)CP(=O)(O)OC[C@H]1O[C@@H](n2ncc3c(NCc4ccccc4)nc(Cl)nc32)[C@@H](F)[C@@H]1O` the value was less than 100 nM; for `C[C@H](Nc1nc(Cl)nc2c1ncn2[C@@H]1O[C@H](COP(=O)(O)CP(=O)(O)O)[C@@H](O)[C@@H]1F)c1ccc(F)cc1`, less than 100 nM.

On to `C[C@@H](Nc1nc(Cl)nc2c1ccn2[C@@H]1O[C@H](COP(=O)(O)CP(=O)(O)O)[C@@H](O)[C@@H]1F)c1ccccc1F`, for which the IC50 was less than 100 nM. As to `C[C@H](Nc1nc(Cl)nc2c1cnn2[C@@H]1O[C@H](COP(=O)(O)CP(=O)(O)O)[C@@H](O)[C@H]1O)c1ccccc1`, the IC50 is less than 100 nM. Next, `O=P(O)(O)CP(=O)(O)OC[C@H]1O[C@@H](n2cnc3c(NCc4ccccc4)nc(-c4ccccc4)nc32)[C@@H](F)[C@@H]1O`: less than 100 nM; `CCNc1nc(Cl)nc2c1ncn2[C@@H]1O[C@H](COP(=O)(O)CP(=O)(O)O)[C@@H](O)[C@@H]1F`: less than 100 nM. In the case of `O=P(O)(O)CP(=O)(O)OC[C@H]1O[C@@H](n2cnc3c(NCCc4ccccc4)nc(Cl)nc32)[C@@H](F)[C@@H]1O`, the IC50 is less than 100 nM. For `CCCc1nc(NCc2ccccc2)c2ncn([C@@H]3O[C@H](COP(=O)(O)CP(=O)(O)O)[C@@H](O)[C@H]3O)c2n1` the value was less than 100 nM. For the compound `O=P(O)(O)CP(=O)(O)OC[C@H]1O[C@@H](n2cnc3c(NCc4ccncc4)nc(Cl)nc32)[C@@H](F)[C@@H]1O`, the IC50 was less than 100 nM.

For `O=P(O)(O)CP(=O)(O)OC[C@H]1O[C@@H](n2ncc3c(NC4CCCC4)nc(Cl)nc32)[C@H](O)[C@@H]1O`, the IC50 is less than 100 nM. Next, `CN(c1nc(Cl)nc2c1cnn2[C@@H]1O[C@H](COP(=O)(O)CP(=O)(O)O)[C@@H](O)[C@H]1O)C1CCCC1`: less than 100 nM. Consider `C[C@@H](Nc1cc(Cl)nc2c1cnn2[C@@H]1O[C@H](COP(=O)(O)CP(=O)(O)O)[C@@H](O)[C@H]1O)c1ccccc1`, for which the IC50 was less than 100 nM.

For the compound `O=P(O)(O)CP(=O)(O)OC[C@H]1O[C@@H](n2cnc3c(NCc4cc(C(F)(F)F)cc(C(F)(F)F)c4)ncnc32)[C@H](O)[C@@H]1O`, the IC50 is less than 100 nM.

As for `C[C@@H](Nc1nc(Cl)nc2c1cnn2[C@@H]1O[C@H](COP(=O)(O)CP(=O)(O)O)[C@@H](O)[C@@H]1F)c1ccc(F)cc1`, the IC50 was less than 100 nM. As to `O=P(O)(O)CP(=O)(O)OC[C@H]1O[C@@H](n2cnc3c(NCc4ccccc4)nc(N4CCCCC4)nc32)[C@H](O)[C@@H]1O`, the IC50 was less than 100 nM. Regarding `Nc1nc(Cl)nc2c1ncn2[C@@H]1O[C@H](COP(=O)(O)CP(=O)(O)O)[C@@H](O)[C@@H]1F`, the IC50 is less than 100 nM.

Turning to `CC(Cn1cnc2c(NCc3ccccc3)ncnc21)OP(=O)(O)CP(=O)(O)O` (stereo not drawn), the IC50 is greater than 1000 nM. As to `C[C@@H](Nc1nc(Cl)nc2c1cnn2[C@@H]1O[C@H](COP(=O)(O)CP(=O)(O)O)[C@@H](O)[C@H]1O)c1ccc(F)cc1`, the IC50 was less than 100 nM. Next, `C[C@H](Nc1nc(Cl)nc2c1cnn2[C@@H]1O[C@H](COP(=O)(O)CP(=O)(O)O)[C@@H](O)[C@@H]1F)c1ccccc1`: less than 100 nM; `CC(COP(=O)(O)CP(=O)(O)O)n1cnc2c(NCc3ccccc3)ncnc21` (stereo not drawn): greater than 1000 nM. In the case of `C[C@H](Nc1nc(Cl)nc2c1ccn2[C@@H]1O[C@H](COP(=O)(O)CP(=O)(O)O)[C@@H](O)[C@@H]1F)c1ccc(F)cc1`, the IC50 was less than 100 nM. `O=P(O)(O)CP(=O)(O)OC[C@H]1O[C@@H](n2cnc3c(NC4CC4)nc(Cl)nc32)[C@@H](F)[C@@H]1O`: the IC50 was less than 100 nM.

As to `C[C@H](Nc1cc(Cl)nc2c1cnn2[C@@H]1O[C@H](COP(=O)(O)CP(=O)(O)O)[C@@H](O)[C@@H]1F)c1ccccc1`, the IC50 was less than 100 nM. For `O=P(O)(O)CP(=O)(O)OC[C@H]1O[C@@H](n2ccc3c(NC4CCCC4)nc(Cl)nc32)[C@@H](F)[C@@H]1O` the value was less than 100 nM; for `O=P(O)(O)CP(=O)(O)OC[C@H]1O[C@@H](n2cnc3c(NCc4ccccc4)nc(Cl)nc32)[C@@H](F)[C@@H]1O`, less than 100 nM. For `Cc1cccc(CNc2nc(Cl)nc3c2ncn3[C@@H]2O[C@H](COP(=O)(O)CP(=O)(O)O)[C@@H](O)[C@@H]2F)c1` the value was less than 100 nM; for `O=P(O)(O)CP(=O)(O)OC[C@H]1O[C@@H](n2cnc3c(NCc4cccc(F)c4)nc(Cl)nc32)[C@@H](F)[C@@H]1O`, less than 100 nM; for `O=P(O)(O)CP(=O)(O)OC[C@H]1O[C@@H](n2cnc3c(NC4CCCC4)nc(Cl)nc32)[C@H](O)[C@@H]1O`, less than 100 nM. `C[C@H](Nc1nc(Cl)nc2c1ccn2[C@@H]1O[C@H](COP(=O)(O)CP(=O)(O)O)[C@@H](O)[C@@H]1F)c1ccccc1`: the IC50 was less than 100 nM. Take `C[C@H](Nc1nc(Cl)nc2c1cnn2[C@@H]1O[C@H](COP(=O)(O)CP(=O)(O)O)[C@@H](O)[C@H]1O)c1ccc(F)cc1`: the IC50 was less than 100 nM.

`C#Cc1nc(NCc2ccccc2)c2ncn([C@@H]3O[C@H](COP(=O)(O)CP(=O)(O)O)[C@@H](O)[C@@H]3F)c2n1`: the IC50 is less than 100 nM. With `O=P(O)(O)CP(=O)(O)OC[C@H]1O[C@@H](n2cnc3c(NCc4ccccc4)nc(Cc4ccccc4)nc32)[C@@H](F)[C@@H]1O`, the IC50 is less than 100 nM.

`CC(C)(C)CNc1nc(Cl)nc2c1ncn2[C@@H]1O[C@H](COP(=O)(O)CP(=O)(O)O)[C@@H](O)[C@H]1O`: the IC50 is less than 100 nM. For `CN(C)c1nc(NCc2ccccc2)c2ncn([C@@H]3O[C@H](COP(=O)(O)CP(=O)(O)O)[C@@H](O)[C@H]3O)c2n1` the value was less than 100 nM; for `C[C@H](Nc1nc(Cl)nc2c1ccn2[C@@H]1O[C@H](COP(=O)(O)CP(=O)(O)O)[C@@H](O)[C@H]1O)c1ccccc1F`, less than 100 nM. For `COP(=O)(O)CP(=O)(O)OC[C@H]1O[C@@H](n2cnc3c(NC4CCCC4)nc(Cl)nc32)[C@H](O)[C@@H]1O` the value was 100 to 1000 nM. In the case of `C[C@H](Nc1nc(Cl)nc2c1cnn2[C@@H]1O[C@H](COP(=O)(O)CP(=O)(O)O)[C@@H](O)[C@H]1O)c1cccc(F)c1`, the half-inhibitory concentration (IC50) is less than 100 nM.

Take `O=P(O)(O)CP(=O)(O)OC[C@H]1O[C@@H](n2ncc3c(N[C@H]4CCOC4)nc(Cl)nc32)[C@H](O)[C@@H]1O`: the IC50 was less than 100 nM.

With `C[C@H](Nc1nc(Cl)nc2c1ccn2[C@@H]1O[C@H](COP(=O)(O)CP(=O)(O)O)[C@@H](O)[C@H]1O)c1cccc(F)c1`, the IC50 was less than 100 nM. As to `CN(c1nc(Cl)nc2c1ncn2[C@@H]1O[C@H](COP(=O)(CP(=O)(Oc2cccc(Cl)c2)Oc2cccc(Cl)c2)Oc2cccc(Cl)c2)[C@@H](O)[C@H]1O)C1CCCC1` (stereo partly drawn), the IC50 was greater than 1000 nM. Regarding `CC(OP(=O)(O)CP(=O)(O)O)[C@H]1O[C@@H](n2cnc3c(NCc4ccccc4)nc(Cl)nc32)[C@H](O)[C@@H]1O` (stereo partly drawn), the IC50 is less than 100 nM.

On to `C=Cc1nc(NCc2ccccc2)c2ncn([C@@H]3O[C@H](COP(=O)(O)CP(=O)(O)O)[C@@H](O)[C@H]3O)c2n1`, for which the IC50 was less than 100 nM. As for `O=P(O)(O)CP(=O)(O)OC[C@H]1O[C@@H](n2cnc3c(NC4CCCC4)nc(Cl)cc32)[C@@H](F)[C@@H]1O`, the IC50 was less than 100 nM. Next, `O=P(O)(O)CP(=O)(O)OC[C@H]1O[C@@H](n2cnc3c(NC4CCCC4)cc(Cl)nc32)[C@@H](F)[C@@H]1O`: less than 100 nM; `COP(=O)(CP(=O)(O)O)OC[C@H]1O[C@@H](n2cnc3c(N(C)C4CCCC4)nc(Cl)nc32)[C@@H](F)[C@@H]1O` (stereo partly drawn): less than 100 nM. For the compound `C=CCc1nc(NCc2ccccc2)c2ncn([C@@H]3O[C@H](COP(=O)(O)CP(=O)(O)O)[C@@H](O)[C@H]3O)c2n1`, the IC50 is less than 100 nM.

Usually IC50 stands for the point on the concentration scale where inhibition reaches its midpoint.

These data come from US12459967B2, “Modulators of 5′-nucleotidase, ecto and the use thereof” (Arcus Biosciences, Inc., priority 2016, dated 2025).
